Tests used:
Experiment in all cases: relative viability (nuclei count vs DMSO), 5 days (fraction); higher = more cells survive
[1] = compound: CCN1CCC(CC1)N2C=C(N=N2)CNC3=CC4=C(C(=CN=C4C(=C3)Cl)C#N)NC5=CC(=C(C=C5)F)Cl [KIN001-266] + CC(C)C[C@H](NC(=O)[C@H](Cc1ccccc1)NC(=O)c1cnccn1)B(O)O [Bortezomib] (partner 0.002 µM)
Procedure, shortened: (§1)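 Relative viability was taken as the ratio of nuclei in treated wells to nuclei in vehicle wells. Lung cancer cell lines in 1536-well plates received compounds by pin tool one day after seeding, either one drug alone or a fixed anchor-drug dose plus five library-drug doses (not always all listed) in √10 steps. Nuclei were counted on 4× images after 5 days of treatment, and values are medians of duplicate plates.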

[2] = compound: CCN1CCC(CC1)N2C=C(N=N2)CNC3=CC4=C(C(=CN=C4C(=C3)Cl)C#N)NC5=CC(=C(C=C5)F)Cl [KIN001-266] + Nc1nc2[nH]cc(CCc3ccc(C(=O)N[C@@H](CCC(=O)O)C(=O)O)cc3)c2c(=O)[nH]1 [Pemetrexed] (partner 0.2 µM)
Procedure, shortened: as §1

[3] = compound: CCN1CCC(CC1)N2C=C(N=N2)CNC3=CC4=C(C(=CN=C4C(=C3)Cl)C#N)NC5=CC(=C(C=C5)F)Cl [KIN001-266] + O=C(c1cc(Cc2n[nH]c(=O)c3ccccc23)ccc1F)N1CCN(C(=O)C2CC2)CC1 [Olaparib] (partner 8 µM)
Procedure, shortened: as §1

[4] = compound: CCN1CCC(CC1)N2C=C(N=N2)CNC3=CC4=C(C(=CN=C4C(=C3)Cl)C#N)NC5=CC(=C(C=C5)F)Cl [KIN001-266] + Cc1nc(NC(=O)N2CCC[C@H]2C(N)=O)sc1-c1ccnc(C(C)(C)C(F)(F)F)c1 [Alpelisib] (partner 2 µM)
Procedure, shortened: as §1

| Cell Line | relative viability ([1]; first compound 0.08 µM) | relative viability ([1]; first compound 0.253 µM) | relative viability ([1]; first compound 0.8 µM) | relative viability ([1]; first compound 2.53 µM) | relative viability ([1]; first compound 8 µM) | relative viability ([2]; first compound 0.08 µM) | relative viability ([2]; first compound 0.253 µM) | relative viability ([2]; first compound 0.8 µM) | relative viability ([2]; first compound 2.53 µM) | relative viability ([2]; first compound 8 µM) | relative viability ([3]; first compound 0.08 µM) | relative viability ([3]; first compound 0.253 µM) | relative viability ([3]; first compound 0.8 µM) | relative viability ([3]; first compound 2.53 µM) | relative viability ([3]; first compound 8 µM) | relative viability ([4]; first compound 0.08 µM) | relative viability ([4]; first compound 0.253 µM) | relative viability ([4]; first compound 0.8 µM) | relative viability ([4]; first compound 2.53 µM) | relative viability ([4]; first compound 8 µM) |
| --- | --- | --- | --- | --- | --- | --- | --- | --- | --- | --- | --- | --- | --- | --- | --- | --- | --- | --- | --- | --- |
| NCI-H647 | 1 | 1.03 | 1.14 | 1.07 | 0.935 | 0.195 | 0.216 | 0.181 | 0.158 | 0.198 | 0.565 | 0.516 | 0.701 | 0.501 | 0.301 | 1.29 | 1.3 | 1.11 | 1.11 | 0.928 |
| NCI-H650 | 0.997 | 0.844 | 0.997 | 0.771 | 0.768 | 1.15 | 0.988 | 1.09 | 1.02 | 0.946 | 0.452 | 0.381 | 0.349 | 0.336 | 0.34 | 1.12 | 1.08 | 1.33 | 1.09 | 1.14 |
| NCI-H661 | 0.784 | 0.755 | 0.878 | 0.837 | 0.566 | 0.913 | 0.946 | 0.932 | 0.856 | 0.741 | 0.741 | 0.732 | 0.707 | 0.617 | 0.459 | 0.95 | 0.753 | 0.721 | 0.557 | 0.591 |
| NCI-H838 | 0.831 | 0.737 | 0.85 | 0.719 | 0.56 | 0.242 | 0.249 | 0.26 | 0.249 | 0.236 | 0.775 | 0.811 | 0.764 | 0.68 | 0.471 | 1.04 | 0.998 | 1.05 | 0.966 | 0.694 |
| NCI-H1355 | 1.23 | 1.23 | 1.1 | 1.26 | 1.18 | 0.987 | 0.995 | 1.1 | 1 | 1.01 | 0.765 | 0.769 | 0.699 | 0.716 | 0.731 | 0.854 | 0.783 | 0.912 | 0.737 | 0.764 |
| NCI-H1437 | 0.534 | 0.435 | 0.514 | 0.493 | 0.447 | 0.32 | 0.329 | 0.329 | 0.3 | 0.241 | 0.644 | 0.649 | 0.666 | 0.582 | 0.377 | 0.997 | 1.06 | 0.961 | 0.858 | 0.495 |
| NCI-H1651 | 0.98 | 0.969 | 0.869 | 0.93 | 0.897 | 0.6 | 0.535 | 0.531 | 0.514 | 0.58 | 0.185 | 0.165 | 0.175 | 0.15 | 0.167 | 1.05 | 0.949 | 1.01 | 0.99 | 0.865 |
| NCI-H1666 | 1.03 | 0.826 | 0.668 | 0.785 | 0.686 | 0.861 | 0.857 | 0.881 | 0.773 | 0.856 | 0.77 | 0.754 | 0.607 | 0.739 | 0.73 | 0.985 | 0.999 | 0.901 | 0.887 | 0.696 |
| NCI-H1734 | 1.07 | 0.842 | 0.822 | 0.805 | 0.768 | 0.425 | 0.426 | 0.435 | 0.388 | 0.417 | 0.719 | 0.6 | 0.505 | 0.551 | 0.425 | 0.686 | 0.686 | 0.546 | 0.716 | 0.704 |
| NCI-H1755 | 0.956 | 0.972 | 0.847 | 0.918 | 0.884 | 0.394 | 0.459 | 0.334 | 0.407 | 0.433 | 0.933 | 0.865 | 0.896 | 0.864 | 0.815 | 1 | 0.895 | 0.95 | 0.843 | 0.816 |
| NCI-H1792 | 0.962 | 0.927 | 0.879 | 0.917 | 0.948 | 0.882 | 0.9 | 0.81 | 0.757 | 0.857 | 0.384 | 0.418 | 0.485 | 0.369 | 0.399 | 0.715 | 0.752 | 0.695 | 0.8 | 0.669 |
| NCI-H1915 | 0.979 | 0.986 | 0.997 | 0.877 | 0.898 | 0.507 | 0.466 | 0.504 | 0.469 | 0.575 | 0.253 | 0.25 | 0.241 | 0.234 | 0.211 | 1.05 | 1.06 | 1.01 | 1.04 | 0.97 |
| NCI-H1975 | 0.373 | 0.462 | 0.404 | 0.336 | 0.336 | 0.314 | 0.305 | 0.297 | 0.285 | 0.29 | 0.823 | 0.81 | 0.791 | 0.734 | 0.69 | 0.696 | 0.75 | 0.667 | 0.665 | 0.597 |

Reference: the supplement of paper PMC10307832
